US8969363B2, “Heterocyclic compounds and uses thereof” (Infinity Pharmaceuticals, Inc., priority 2011, dated 2015)
Like-named read-outs stand apart in the source and are kept apart here.

What was measured:
[1] = biological target: PI3Kβ; test: PI3 Kinase HTRF assay, PI3Kβ; type: biochemical, human; details: 10 μM PIP2, 10 μM ATP, read-out: PI3K β IC50
Description: (§1) A PI3-Kinase HTRF® assay kit (cat No. 33-016) purchased from Millipore Corporation was used to screen compounds provided herein. This assay used specific, high affinity binding of the GRP1 pleckstrin homology (PH) domain to PIP3, the product of a Class 1A or 1B PI3 Kinase acting on its physiological substrate PIP2. During the detection phase of the assay, a complex was generated between the GST-tagged PH domain and biotinylated short chain PIP3. The biotinylated PIP3 and the GST-tagged PH domain recruited fluorophores (Streptavidin-Allophycocyanin and Europium-labeled anti-GST respectively) to form the fluorescence resonance energy transfer (FRET) architecture, generating a stable time-resolved FRET signal. The FRET complex was disrupted in a competitive manner by non-biotinylated PIP3, a product formed in the PI3 Kinase assay.
PI3 Kinase α, β, γ and δ activity was assayed using the PI3 Kinase HTRF® assay kit (catalogue No. 33-016) purchased from Millipore Corporation. […] Purified recombinant PI3K enzyme was used to catalyze the phosphorylation of phosphatidylinositol 4,5-bisphosphate (PIP2 at 10 μM) to phosphatidylinositol 3,4,5-trisphosphate (PIP3) in the presence of 10 μM ATP. The assay was carried out in 384-well format and detected using a Perkin Elmer EnVision Xcite Multilabel Reader. Emission ratios were converted into percent inhibitions and imported into GraphPad Prism software. […] IC50 values were determined using a nonlinear regression model available in GraphPad Prism 5. […]

[2] = test system: Balb/c splenic B cells; test: B cell activation and proliferation assay (Alamar Blue); type: cell-based; details: Mus musculus
Protocol: The ability of one or more subject compounds to inhibit B cell activation and proliferation is determined according to standard procedures known in the art. For example, an in vitro cellular proliferation assay is established that measures the metabolic activity of live cells. The assay is performed in a 96 well microtiter plate using Alamar Blue reduction. Balb/c splenic B cells are purified over a Ficoll-Paque™ PLUS gradient followed by magnetic cell separation using a MACS B cell Isolation Kit (Miletenyi). Cells are plated in 90 μl at 50,000 cells/well in B Cell Media (RPMI+10% FBS+Penn/Strep+50 μM bME+5 mM HEPES). A compound provided herein is diluted in B Cell Media and added in a 10 μl volume. Plates are incubated for 30 min at 37° C. and 5% CO2 (0.2% DMSO final concentration). A 50 μl B cell stimulation cocktail is then added containing either 10 μg/ml LPS or 5 μg/ml F(ab′)2 Donkey anti-mouse […] plus 2 ng/ml recombinant mouse IL4 in B Cell Media. Plates are incubated for 72 hours at 37° C. and 5% CO2. A volume of 15 μL of Alamar Blue reagent is added to each well and plates are incubated for 5 hours at 37° C. and 5% CO2. Alamar Blue fluoresce is read at 560Ex/590Em, and IC50 or EC50 values are calculated using GraphPad Prism 5.

[3] = biological target: T1, PI3Kα (Homo sapiens, UniProt P42336); test: PI3 Kinase HTRF assay, PI3Kα; type: biochemical; details: 10 μM PIP2, 10 μM ATP; 'Greater than 10 μM' and 'Greater than 1 μM to 10 μM'; read-out: PI3K α IC50
T1 construct: purchased Millipore Corporation 14-602-K
T1 sequence (P42336 whole entry): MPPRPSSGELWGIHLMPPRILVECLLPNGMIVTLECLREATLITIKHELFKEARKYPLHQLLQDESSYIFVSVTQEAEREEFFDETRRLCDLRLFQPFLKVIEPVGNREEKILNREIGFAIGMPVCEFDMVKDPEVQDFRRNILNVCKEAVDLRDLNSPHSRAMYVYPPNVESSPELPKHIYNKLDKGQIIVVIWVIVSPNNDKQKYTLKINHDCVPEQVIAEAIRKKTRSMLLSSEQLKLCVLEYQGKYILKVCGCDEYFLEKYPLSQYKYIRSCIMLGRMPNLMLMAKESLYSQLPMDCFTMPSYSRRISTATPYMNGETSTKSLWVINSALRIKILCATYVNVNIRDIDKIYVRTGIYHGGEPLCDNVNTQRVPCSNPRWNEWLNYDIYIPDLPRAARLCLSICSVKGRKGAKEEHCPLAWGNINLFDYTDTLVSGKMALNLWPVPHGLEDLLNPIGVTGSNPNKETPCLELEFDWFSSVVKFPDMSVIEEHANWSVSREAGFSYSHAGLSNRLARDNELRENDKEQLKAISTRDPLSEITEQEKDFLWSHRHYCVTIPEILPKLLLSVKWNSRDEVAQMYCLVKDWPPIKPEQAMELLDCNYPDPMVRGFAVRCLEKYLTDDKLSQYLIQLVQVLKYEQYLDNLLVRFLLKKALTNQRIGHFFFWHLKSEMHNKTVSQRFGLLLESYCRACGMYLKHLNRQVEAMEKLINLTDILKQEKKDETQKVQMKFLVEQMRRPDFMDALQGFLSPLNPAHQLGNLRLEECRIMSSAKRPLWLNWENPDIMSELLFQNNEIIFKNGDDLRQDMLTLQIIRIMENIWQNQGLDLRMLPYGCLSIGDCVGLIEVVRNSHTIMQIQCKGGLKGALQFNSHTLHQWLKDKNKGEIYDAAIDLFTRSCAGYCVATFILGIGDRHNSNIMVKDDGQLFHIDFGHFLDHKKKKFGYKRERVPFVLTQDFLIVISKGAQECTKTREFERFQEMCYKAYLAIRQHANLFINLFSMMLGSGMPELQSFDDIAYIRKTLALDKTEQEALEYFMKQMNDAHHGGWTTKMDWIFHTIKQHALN
T1 sequence (P27986 whole entry partner): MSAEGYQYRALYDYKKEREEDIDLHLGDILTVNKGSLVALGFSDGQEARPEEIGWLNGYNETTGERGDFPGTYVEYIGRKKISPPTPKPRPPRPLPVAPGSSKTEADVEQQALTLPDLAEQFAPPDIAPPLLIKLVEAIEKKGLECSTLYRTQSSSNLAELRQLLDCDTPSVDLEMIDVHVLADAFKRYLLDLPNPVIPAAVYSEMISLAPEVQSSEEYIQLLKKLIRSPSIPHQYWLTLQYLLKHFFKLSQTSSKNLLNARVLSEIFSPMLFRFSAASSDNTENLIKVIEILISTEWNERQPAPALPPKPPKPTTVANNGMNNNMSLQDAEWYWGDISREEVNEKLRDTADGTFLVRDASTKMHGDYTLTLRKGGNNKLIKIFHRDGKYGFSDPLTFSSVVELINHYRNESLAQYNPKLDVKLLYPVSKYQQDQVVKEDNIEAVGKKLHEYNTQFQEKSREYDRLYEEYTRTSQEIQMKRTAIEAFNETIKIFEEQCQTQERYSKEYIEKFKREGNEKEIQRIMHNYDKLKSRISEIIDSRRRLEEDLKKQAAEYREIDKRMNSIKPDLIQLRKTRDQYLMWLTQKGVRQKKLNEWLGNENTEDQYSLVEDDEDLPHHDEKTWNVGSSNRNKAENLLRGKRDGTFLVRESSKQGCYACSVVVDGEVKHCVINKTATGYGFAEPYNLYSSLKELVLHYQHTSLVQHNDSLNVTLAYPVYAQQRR
Description: as §1
PI3 Kinase α, β, γ and δ activity was assayed using the PI3 Kinase HTRF® assay kit (catalogue No. 33-016) purchased from Millipore Corporation. Purified recombinant PI3Kα (catalogue No. 14-602-K), PI3Kβ (catalogue No. 14-603-K), PI3Kγ (catalogue No. 14-558-K) and PI3Kδ (catalogue No. 14-604-K) were obtained from Millipore Corporation. Purified recombinant PI3K enzyme was used to catalyze the phosphorylation of phosphatidylinositol 4,5-bisphosphate (PIP2 at 10 μM) to phosphatidylinositol 3,4,5-trisphosphate (PIP3) in the presence of 10 μM ATP. The assay was carried out in 384-well format and detected using a Perkin Elmer EnVision Xcite Multilabel Reader. Emission ratios were converted into percent inhibitions and imported into GraphPad Prism software. The concentration necessary to achieve inhibition of enzyme activity by 50% (IC50) was calculated using concentrations ranging from 20 μM to 0.1 nM (12-point curve). IC50 values were determined using a nonlinear regression model available in GraphPad Prism 5. […]

[4] = 'Greater than 10 μM' and 'Greater than 1 μM to 10 μM'

Chain of PI3Kβ (Q8BTI9 whole entry, the tested form may be a part): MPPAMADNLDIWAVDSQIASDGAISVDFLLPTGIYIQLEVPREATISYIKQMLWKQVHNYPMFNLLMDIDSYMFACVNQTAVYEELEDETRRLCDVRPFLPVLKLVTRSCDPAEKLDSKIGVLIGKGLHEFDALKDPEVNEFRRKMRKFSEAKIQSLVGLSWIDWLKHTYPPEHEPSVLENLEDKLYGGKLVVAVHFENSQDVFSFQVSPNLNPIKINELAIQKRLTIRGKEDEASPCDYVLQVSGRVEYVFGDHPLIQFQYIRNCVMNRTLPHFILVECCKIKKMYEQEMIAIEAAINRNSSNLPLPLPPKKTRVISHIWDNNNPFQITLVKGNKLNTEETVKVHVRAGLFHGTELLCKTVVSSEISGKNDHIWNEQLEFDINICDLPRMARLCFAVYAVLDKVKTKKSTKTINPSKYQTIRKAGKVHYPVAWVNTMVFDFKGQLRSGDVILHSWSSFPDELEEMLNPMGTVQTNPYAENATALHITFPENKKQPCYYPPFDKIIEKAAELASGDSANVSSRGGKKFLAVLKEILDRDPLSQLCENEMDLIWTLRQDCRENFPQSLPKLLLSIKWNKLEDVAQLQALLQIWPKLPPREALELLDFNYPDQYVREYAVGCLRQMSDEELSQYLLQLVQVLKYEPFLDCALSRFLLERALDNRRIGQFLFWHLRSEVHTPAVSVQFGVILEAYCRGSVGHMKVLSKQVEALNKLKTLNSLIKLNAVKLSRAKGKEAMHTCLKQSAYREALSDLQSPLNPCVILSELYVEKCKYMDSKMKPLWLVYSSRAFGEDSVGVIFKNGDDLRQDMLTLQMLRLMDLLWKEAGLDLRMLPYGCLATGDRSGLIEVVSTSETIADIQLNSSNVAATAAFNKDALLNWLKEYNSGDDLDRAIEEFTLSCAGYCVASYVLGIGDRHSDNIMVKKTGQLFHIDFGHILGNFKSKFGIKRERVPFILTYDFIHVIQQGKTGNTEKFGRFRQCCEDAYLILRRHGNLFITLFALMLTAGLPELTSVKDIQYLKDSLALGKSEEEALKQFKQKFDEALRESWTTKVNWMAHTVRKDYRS

Cc1ncc(-c2cccc3cc([C@H](C)Nc4nc(N)nc5cccnc45)n(-c4ccccc4)c(=O)c23)cn1 [Compound I-59]
IC50 [1, 4]: > 10000 nM
EC50 ([2]; 'Less than 100 nM'): < 100 nM

C[C@H](Nc1cc(N)nc2ccnn12)c1cc2cccc(Cl)c2c(=O)n1-c1ccccc1 [II-49]
IC50 [1, 4]: 1000 to 10000 nM
EC50 ([2]; 'Less than 100 nM'): < 100 nM

Cc1cc(-c2cccc3cc([C@H](C)Nc4nc(N)nc5cccnc45)n(-c4ccccc4)c(=O)c23)ccn1 [Compound I-81]
IC50 [1, 4]: 1000 to 10000 nM
EC50 ([2]; 'Less than 100 nM'): < 100 nM

C[C@H](Nc1ncnc2[nH]cc(C(N)=O)c12)c1cc2cccc(C(F)(F)F)c2c(=O)n1-c1ccccc1 [III-20]
IC50 [3]: 1000 to 10000 nM

CNc1nc(N[C@@H](C)c2cc3cccc(NC)c3c(=O)n2-c2ccccc2)c2ncccc2n1 [Compound I-95]
IC50 [1, 4]: > 10000 nM
EC50 ([2]; 1 μM to 100 nM): 100 to 1000 nM

C[C@H](Nc1ncnc2ccnn12)c1cc2cccc(Cl)c2c(=O)n1-c1cccc(F)c1 [II-30]
IC50 [1, 4]: 1000 to 10000 nM
EC50 ([2]; 'Less than 100 nM'): < 100 nM

C[C@H](Nc1ncnc2scnc12)c1cc2scc(C(F)(F)F)c2c(=O)n1-c1ccccc1 [III-39]
EC50 ([2]; 'Less than 100 nM'): < 100 nM
IC50 [3]: 1000 to 10000 nM

C[C@H](Nc1ccnn2ccnc12)c1cc2cccc(C(F)(F)F)c2c(=O)n1-c1ccccc1 [III-8, (S)-3-(1-(imidazo[1,2-b]pyridazin-8-ylamino)ethyl)-2-phenyl-8-(trifluoromethyl)isoquinolin-1(2H)-one]
EC50 ([2]; 'Less than 100 nM'): < 100 nM
IC50 [3]: 1000 to 10000 nM

Cc1cc(-c2cccc3cc([C@H](C)Nc4ncnc5cccnc45)n(-c4ccccc4)c(=O)c23)cnc1C [Compound I-44]
IC50 [1, 4]: > 10000 nM
IC50 [3]: 1000 to 10000 nM

C[C@H](Nc1ccnc2ccnn12)c1cc2scc(Cl)c2c(=O)n1-c1ccccc1 [II-20]
IC50 [3]: 1000 to 10000 nM

C[C@H](Nc1nc(N)nc2[nH]cnc12)c1cc2cccc(C(F)(F)F)c2c(=O)n1-c1ccccc1 [III-17]
IC50 ([1]; 'Less than 100 nM'): < 100 nM
EC50 ([2]; 'Less than 100 nM'): < 100 nM

C[C@H](Nc1nc(N)ncc1C#N)c1cc2cccc(C(F)(F)F)c2c(=O)n1-c1cccc(F)c1 [III-45]
EC50 ([2]; 'Less than 100 nM'): < 100 nM
IC50 [3]: 1000 to 10000 nM

C[C@H](Nc1ccnc2ccnn12)c1cc2cccc(Cl)c2c(=O)n1-c1ccccc1 [II-2, (S)-8-chloro-2-phenyl-3-(1-(pyrazolo[1,5-a]pyrimidin-7-ylamino)ethyl)isoquinolin-1(2H)-one]
EC50 ([2]; 'Less than 100 nM'): < 100 nM
IC50 [3]: 1000 to 10000 nM

C[C@H](Nc1ccnc2cccnc12)c1cc2cccc(Cl)c2c(=O)n1-c1ccccc1 [Compound I-49]
EC50 ([2]; 'Less than 100 nM'): < 100 nM
IC50 [3]: 1000 to 10000 nM

C[C@H](Nc1nc(N)nc2nccnc12)c1cc2cccc(Cl)c2c(=O)n1-c1ccccc1 [IV-22]
IC50 [1, 4]: 1000 to 10000 nM
EC50 ([2]; 'Less than 100 nM'): < 100 nM

C[C@H](Nc1ncnc2[nH]cc(F)c12)c1cc2cccc(C(F)(F)F)c2c(=O)n1-c1ccccc1 [III-18]
IC50 [1, 4]: 1000 to 10000 nM
IC50 [3]: 1000 to 10000 nM

C[C@H](Nc1ccnc2ccnn12)c1cc2cccc(C(F)(F)F)c2c(=O)n1-c1ccccc1 [III-6]
EC50 ([2]; 'Less than 100 nM'): < 100 nM
IC50 [3]: 1000 to 10000 nM

C[C@H](Nc1nc(N)nc2cccnc12)c1cc2cccc(-c3cnc4ccccc4c3)c2c(=O)n1-c1ccccc1 [Compound I-82]
IC50 [1, 4]: 1000 to 10000 nM
EC50 ([2]; 'Less than 100 nM'): < 100 nM

Cc1cc(-c2cccc3nc([C@H](C)Nc4nc(N)nc5cccnc45)n(-c4ccccc4)c(=O)c23)ccn1 [Compound I-88]
IC50 [1, 4]: 1000 to 10000 nM
EC50 ([2]; 'Less than 100 nM'): < 100 nM

C[C@H](Nc1ccnc2ccnn12)c1cc2cccc(Cl)c2c(=O)n1C1CC1 [II-7]
EC50 ([2]; 'Less than 100 nM'): < 100 nM
IC50 [3]: 1000 to 10000 nM

C[C@H](Nc1ccnc2ccnn12)c1cc2cccc(C(F)(F)F)c2c(=O)n1-c1cccc(F)c1 [III-11]
IC50 [1, 4]: 1000 to 10000 nM
EC50 ([2]; 'Less than 100 nM'): < 100 nM

C[C@H](Nc1ncnc2cccnc12)c1cc2cccc(-c3cnc(N)nc3)c2c(=O)n1-c1ccccc1 [Compound I-63]
IC50 [1, 4]: 1000 to 10000 nM
EC50 ([2]; 'Less than 100 nM'): < 100 nM
